Test results reported in patent US6706721B1, “N-(3-ethynylphenylamino)-6,7-bis(2-methoxyethoxy)-4-quinazolinamine mesylate anhydrate and monohydrate” (OSI Pharmaceuticals, Inc., priority 1998, dated 2004).

What was measured:
hygroscopicity = type: physicochemical
[1] = resistance to thermal degradation; type: physicochemical

C#Cc1cccc(Nc2ncnc3cc(OCCOC)c(OCCOC)cc23)c1.CS(=O)(=O)O [Polymorph C, N-(3-ethynylphenyl)-6,7-bis(2-methoxyethoxy)-4-quinazolinamine Mesylate Salt]
hygroscopicity (hygroscopicity): essentially non-hygroscopic
thermal degradation [1]: resistance to thermal degradation
